This experiment addresses T1, Hypoxanthine-guanine-xanthine phosphoribosyltransferase (Plasmodium falciparum (isolate FCR-3 / Gambia), UniProt P20035).
T1 sequence (P20035 whole entry): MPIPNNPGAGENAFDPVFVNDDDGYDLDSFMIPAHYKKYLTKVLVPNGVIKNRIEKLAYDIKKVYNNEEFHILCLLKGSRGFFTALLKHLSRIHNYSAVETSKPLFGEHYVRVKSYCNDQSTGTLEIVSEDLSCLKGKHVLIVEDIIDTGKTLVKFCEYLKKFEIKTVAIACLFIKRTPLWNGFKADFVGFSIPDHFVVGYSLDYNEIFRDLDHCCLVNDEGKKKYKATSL
The experiment in a line: Inhbition Assay. The settings on record: pH 7.6; 37 °C. How it is done: PfHGXPRT activity was measured using spectrophotometric assay observing the conversion of xanthine and 5-phospho-alpha-D-ribose-1-pyrophosphate to xanthosine-5'-monophosphate and inorganic pyrophosphate (PPi) at 247nm or the conversion of guanine and PRPP to guanosine-5'-monophosphate and PPi on a Varian Cary 100 spectrophotometer.

With `O=c1[nH]cnc2c(NCCCP(=O)(O)O)c[nH]c12` [HGXPRT Inhibitor, 2], the affinity corresponds to a Ki of 10.6 nM.

Compound `O=c1[nH]cnc2c(N[C@H](CO)CCP(=O)(O)O)c[nH]c12` [HGXPRT Inhibitor, 3] came in with a Ki of 0.65 nM.

Broadly, the Ki is the equilibrium dissociation constant of an inhibitor or competing ligand from its target. A high value points to weaker binding.

(Values after BindingDB's records for doi:10.1016/j.chembiol.2012.04.012 (Albert Einstein College of Medicine, 2012).)
